Measurements: patent publication US20260317332A1, “BICYCLIC HETEROCYCLE COMPOUNDS FOR THE TREATMENT OF CANCER” (Hoffmann-La Roche Inc., priority 2023, published 2026)

Legend:
[1] = molecular target: T1, CD73 (Homo sapiens, UniProt P21589); test: Human CD73 Biochemical Assay; conditions: 0.05 nM recombinant CD73; AMP 5.56 μM final; 10 min at room temperature; LC/MS adenosine readout; read-out: Enzymatic IC50 against human CD73
T1 sequence (P21589 27-574): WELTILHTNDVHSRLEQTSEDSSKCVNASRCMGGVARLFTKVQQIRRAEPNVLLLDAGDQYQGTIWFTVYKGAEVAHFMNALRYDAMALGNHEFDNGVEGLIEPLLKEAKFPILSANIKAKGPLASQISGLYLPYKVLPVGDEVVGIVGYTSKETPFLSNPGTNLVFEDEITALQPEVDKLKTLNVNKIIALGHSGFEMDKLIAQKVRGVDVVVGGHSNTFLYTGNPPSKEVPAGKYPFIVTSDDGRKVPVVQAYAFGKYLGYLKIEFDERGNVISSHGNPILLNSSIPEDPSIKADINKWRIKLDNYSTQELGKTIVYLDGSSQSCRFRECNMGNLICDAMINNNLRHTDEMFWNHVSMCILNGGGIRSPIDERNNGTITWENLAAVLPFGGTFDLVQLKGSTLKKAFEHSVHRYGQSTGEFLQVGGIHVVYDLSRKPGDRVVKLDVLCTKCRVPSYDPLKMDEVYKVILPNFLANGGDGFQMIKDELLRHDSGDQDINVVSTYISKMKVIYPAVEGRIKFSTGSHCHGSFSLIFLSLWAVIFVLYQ
Experimental: The purpose of this assay is to identify and characterize inhibitors of human CD73 enzymatic activity. Compound serial dilution (1:3) was prepared with Echo 555 liquid handler (Labcyte) into the corresponding wells of a 384-well plate. 10 μL of enzyme working solution (containing 0.05 nM recombinant CD73 protein, 10 mM Tris pH 7.5, 100 mM NaCl, 0.01% BSA, 0.2 mM Octyl glucoside and 1 mM NaH2PO4) was added to the assay plate and incubated with compounds for 15 minutes at room temperature. After adding 15 μL of AMP working solution (Containing 10 mM Tris pH 7.5, 100 mM NaCl, 0.01% BSA, 0.2 mM Octyl glucoside, with 5.56 μM of AMP final concentration) and incubate for 10 min at room temperature. Stop the reaction by adding 75 μL of stop solution (5% TCA in H2O containing 250 nM 13C5-adenosine) to each well for 10 min incubation. After centrifugation, 75 μL of the mixture was transferred to a new 384-well plate for LC/MS analysis.
Samples from the 384-well plates, were loaded onto an autosampler deck, then injected with ADDA-LC-MS/MS. The aqueous mobile phase is 0.1% formic acid in water. The organic mobile phase is 0.1% formic acid in acetonitrile. Flow rate is maintained at 0.8 mL/minute using Shimadzu pumps. The column is ACE 5 Phenyl, 50×2.1 mm. The analysis was performed on a SCIEX triple quadrupole mass spectrometer operating in positive ion mode. The effluent from the HPLC column was directly introduced into the electrospray ionization (ESI). Multiple reaction monitoring (MRM) is used to determine analyte and internal standard (IS) responses. The MRM for adenosine is 268.1/136.1, for 13C5-Adenosine (IS) is 273.2/136.2. The data is calculated using the peak area ratio (PAR) semi-quantitative method.

[2] = molecular target: T1, CD73; test: CD73 Cellular Assay; format: cell-based; design: 40 μL of MDA-MB-231 cells (ATCC, HTB-26, breast cancer); host or cells: MDA-MB-231; conditions: MDA-MB-231 cells; 200 μM AMP working solution; 45 min at 37° C.; malachite readout; read-out: Cellular IC50 against CD73
Experimental: Compound serial dilution (1:3) was prepared with Echo 555 liquid handler (Labcyte) into the corresponding wells of a 384-well plate. 40 μL of MDA-MB-231 cells (ATCC, HTB-26, breast cancer, final concentration at 20,000 cells/mL) suspended in assay buffer (20 mM HEPES pH 7.4, 137 mM NaCl, 5.4 mM KCl, 1.3 mM CaCl2, 4.2 mM NaHCO3, 1 mg/mL glucose) were added into the corresponding wells of the plate. After incubating with compounds for 30 minutes, 40 μL of AMP working solution (200 μM AMP in assay buffer) was added into each well in the assay plate. The assay plate was then incubated in a 5% CO2 incubator (Thermo Fisher Scientific) at 37° C. for 45 min. After the reaction was completed, 50 μL of the supernatants was collected and transferred into a new 384 well plate. 10 μL of Malachite A was added to each well in the assay plate and incubated for 10 minutes. 10 μL of Malachite B was then added to each corresponding well of the plate and incubated for 30 minutes. Finally the absorbance value was read on the Envision plate reader at […]. Calculation percentage inhibition by using equation {% inhibition=100×[1−(X−MIN)/(MAX−MIN)]} where X equals to the well signal, Max equals signal of neutral control and MIN equals signal of inhibitor control.

| SMILES | IC50 [1] [nM] | IC50 [2] [nM] |
| --- | --- | --- |
| Cn1nc(O[C@H](c2ccnc(OCC(C)(F)F)c2)C(F)F)c2cc(-c3c[nH]c(=O)[nH]c3=O)nnc21 [Example 16, 5-[3-[(1R)-1-[2-(2,2-difluoropropoxy)-4-pyridyl]-2,2-difluoro-ethoxy]-1-methyl-pyrazolo[3,4-c]pyridazin-5-yl]-1H-pyrimidine-2,4-dione] | 0.04 | 0.54 |
| [2H]C([2H])(Oc1ccnc([C@@H](Oc2nn(C)c3nnc(-c4c[nH]c(=O)[nH]c4=O)cc23)C(F)F)c1)C(F)(F)F [Example 5, 5-[3-[(1R)-1-[4-(1,1-dideuterio-2,2,2-trifluoro-ethoxy)-2-pyridyl]-2,2-difluoro-ethoxy]-1-methyl-pyrazolo[3,4-c]pyridazin-5-yl]-1H-pyrimidine-2,4-dione] |  | 0.52 |
| Cn1nc(O[C@H](c2ccnc(NC3CCC(F)(F)CC3)c2)C(F)F)c2cc(-c3c[nH]c(=O)[nH]c3=O)nnc21 [Example 32, 5-[3-[(1R)-1-[2-[(4,4-difluorocyclohexyl)amino]-4-pyridyl]-2,2-difluoro-ethoxy]-1-methyl-pyrazolo[3,4-c]pyridazin-5-yl]-1H-pyrimidine-2,4-dione] | 0.05 | 0.38 |
| Cn1nc(O[C@H](c2cc(OCC3(C#N)CC3)ccn2)C(F)F)c2cc(-c3c[nH]c(=O)[nH]c3=O)nnc21 [Example 22, 1-[[2-[(1R)-1-[5-(2,4-dioxo-1H-pyrimidin-5-yl)-1-methyl-pyrazolo[3,4-c]pyridazin-3-yl]oxy-2,2-difluoro-ethyl]-4-pyridyl]oxymethyl]cyclopropanecarbonitrile] |  | 0.43 |
| COC1(COc2cc([C@@H](Oc3nn(C)c4nnc(-c5c[nH]c(=O)[nH]c5=O)cc34)C(F)F)ccn2)CC1 [Example 41, 5-[3-[(1R)-2,2-difluoro-1-[2-[(1-methoxycyclopropyl)methoxy]-4-pyridyl]ethoxy]-1-methyl-pyrazolo[3,4-c]pyridazin-5-yl]-1H-pyrimidine-2,4-dione] |  | 0.73 |
| [2H]C([2H])([2H])C([2H])([2H])Oc1cc([C@@H](Oc2nn(C)c3nnc(-c4c[nH]c(=O)[nH]c4=O)cc23)C(F)F)ncn1 [Example 39A, 5-[3-[(1R)-2,2-difluoro-1-[6-(1,1,2,2,2-pentadeuterioethoxy)pyrimidin-4-yl]ethoxy]-1-methyl-pyrazolo[3,4-c]pyridazin-5-yl]-1H-pyrimidine-2,4-dione] |  | 0.65 |
| Cn1nc(O[C@H](c2cc(OCC3CC3(F)F)ccn2)C(F)F)c2cc(-c3c[nH]c(=O)[nH]c3=O)nnc21 (stereo partly drawn) [Example 18, 5-[1-methyl-3-[(1R)-1-[4-[(2,2-difluorocyclopropyl)methoxy]-2-pyridyl]-2,2-difluoro-ethoxy]pyrazolo[3,4-c]pyridazin-5-yl]-1H-pyrimidine-2,4-dione] |  | 0.54 |
| CC(Oc1ccnc([C@@H](Oc2nn(C)c3nnc(-c4c[nH]c(=O)[nH]c4=O)cc23)C(F)F)c1)C(F)(F)F (stereo partly drawn) [Example 17, 5-[1-methyl-3-[(1R)-2,2-difluoro-1-[4-(2,2,2-trifluoro-1-methyl-ethoxy)-2-pyridyl]ethoxy]pyrazolo[3,4-c]pyridazin-5-yl]-1H-pyrimidine-2,4-dione] |  | 0.39 |
| C[C@H](OC1CC1)c1cc([C@@H](Oc2nn(C)c3nnc(-c4c[nH]c(=O)[nH]c4=O)cc23)C(F)F)ccn1 (single isomer, unassigned) [Example 37A] | 0.13 | 0.87 |
| CCOc1ccnc([C@@H](Oc2nn(C)c3nnc(-c4c[nH]c(=O)[nH]c4=O)cc23)C(F)F)c1 [Example 20, 5-[3-[(1R)-1-(4-ethoxy-2-pyridyl)-2,2-difluoro-ethoxy]-1-methyl-pyrazolo[3,4-c]pyridazin-5-yl]-1H-pyrimidine-2,4-dione] | 0.06 | 0.49 |
| Cn1nc(O[C@H](c2cccc(OCC(F)(F)F)c2)C(F)F)c2cc(-c3c[nH]c(=O)[nH]c3=O)nnc21 [Example 1, 5-[3-[(1R)-2,2-difluoro-1-[3-(2,2,2-trifluoroethoxy)phenyl]ethoxy]-1-methyl-pyrazolo[3,4-c]pyridazin-5-yl]-1H-pyrimidine-2,4-dione] | 0.08 | 0.7 |
| Cn1nc(O[C@H](c2cncc(OCC(F)(F)F)c2)C(F)F)c2cc(-c3c[nH]c(=O)[nH]c3=O)nnc21 (single isomer, unassigned) [Example 8A] | 0.07 | 0.66 |
| Cn1nc(O[C@H](c2ccnc(CN3CCC(F)(F)C3)c2)C(F)F)c2cc(-c3c[nH]c(=O)[nH]c3=O)nnc21 [Example 33, 5-[3-[(1R)-1-[2-[(3,3-difluoropyrrolidin-1-yl)methyl]-4-pyridyl]-2,2-difluoro-ethoxy]-1-methyl-pyrazolo[3,4-c]pyridazin-5-yl]-1H-pyrimidine-2,4-dione] |  | 0.63 |
| CCOc1cc([C@@H](Oc2nn(C)c3nnc(-c4c[nH]c(=O)[nH]c4=O)cc23)C(F)F)ccn1 [Example 29, 5-[3-[(1R)-1-(2-ethoxy-4-pyridyl)-2,2-difluoro-ethoxy]-1-methyl-pyrazolo[3,4-c]pyridazin-5-yl]-1H-pyrimidine-2,4-dione] |  | 0.51 |
| Cn1nc(O[C@H](c2ccnc(OCC(F)F)c2)C(F)F)c2cc(-c3n[nH]c(=O)[nH]c3=O)nnc21 [Example 13A, 6-[3-[(1R)-1-[2-(2,2-difluoroethoxy)-4-pyridyl]-2,2-difluoro-ethoxy]-1-methyl-pyrazolo[3,4-c]pyridazin-5-yl]-2H-1,2,4-triazine-3,5-dione] | 0.02 | 0.97 |
| Cn1nc(O[C@H](c2ccc3c(c2)N(CC(F)(F)F)CCO3)C(F)F)c2cc(-c3c[nH]c(=O)[nH]c3=O)nnc21 [Example 25, 5-[3-[(1R)-2,2-difluoro-1-[4-(2,2,2-trifluoroethyl)-2,3-dihydro-1,4-benzoxazin-6-yl]ethoxy]-1-methyl-pyrazolo[3,4-c]pyridazin-5-yl]-1H-pyrimidine-2,4-dione] |  | 1.29 |
| [2H]C([2H])([2H])n1nc(O[C@H](c2cc(OCC(F)(F)F)ccn2)C(F)F)c2cc(-c3c[nH]c(=O)[nH]c3=O)nnc21 [Example 6, 5-[3-[(1R)-2,2-difluoro-1-[4-(2,2,2-trifluoroethoxy)-2-pyridyl]ethoxy]-1-(trideuteriomethyl)pyrazolo[3,4-c]pyridazin-5-yl]-1H-pyrimidine-2,4-dione] |  | 0.43 |
| Cn1nc(O[C@H](c2cc(OCC3(F)CC3)ccn2)C(F)F)c2cc(-c3c[nH]c(=O)[nH]c3=O)nnc21 [Example 19, 5-[3-[(1R)-2,2-difluoro-1-[4-[(1-fluorocyclopropyl)methoxy]-2-pyridyl]ethoxy]-1-methyl-pyrazolo[3,4-c]pyridazin-5-yl]-1H-pyrimidine-2,4-dione] |  | 0.59 |
